The record followed here is patent US12686676B2, “Compound, endothelin-A receptor antagonist, and pharmaceutical composition” (Alchemedicine, Inc., priority 2021, dated 2026).

Data set [1] can be described thus: Metabolic stability in mouse liver microsome. Further: tested at 0.99 µM. It counts as in vitro ADME. Particulars: after 30 minutes with NADPH. How it is done:
971.5 μL of the potassium phosphate buffer solution and 27.5 μL of the human liver microsome were placed in a propylene tube and suspended. 1 μL of the test compound was added thereto, and a 180 μL aliquot of this mixture was transferred to a fresh tube. The mixture was preincubated at 37° C. for 5 minutes. Then, 20 μL of the NADPH solution (for an incubation time of 30 minutes) or 20 μL of the potassium phosphate buffer solution (for an incubation time of 0 minutes) was added thereto. After incubation, the reaction was terminated by the addition of 200 μL of the quenching solution. Subsequently, the tube was centrifuged at 3220×g for 20 minutes, and the concentration of an unchanged form of the test compound in […] of a supernatant was measured by LC-MS/MS. On the basis of the obtained peak area of the unchanged form, the residual rate (%) of the unchanged form was calculated using the rate of 0 minutes of incubation time as 100%.
The metabolic stability in a mouse liver microsome was evaluated by the same method as above except that the mouse liver microsome was used instead of the human liver microsome.

The target in data set [2] is T1, human endothelin A receptor (Homo sapiens, UniProt P25101).
T1 construct: expressed in transfected cells; host or cells: CHO-K1-mt aequorin cells
T1 sequence (P25101 21-427): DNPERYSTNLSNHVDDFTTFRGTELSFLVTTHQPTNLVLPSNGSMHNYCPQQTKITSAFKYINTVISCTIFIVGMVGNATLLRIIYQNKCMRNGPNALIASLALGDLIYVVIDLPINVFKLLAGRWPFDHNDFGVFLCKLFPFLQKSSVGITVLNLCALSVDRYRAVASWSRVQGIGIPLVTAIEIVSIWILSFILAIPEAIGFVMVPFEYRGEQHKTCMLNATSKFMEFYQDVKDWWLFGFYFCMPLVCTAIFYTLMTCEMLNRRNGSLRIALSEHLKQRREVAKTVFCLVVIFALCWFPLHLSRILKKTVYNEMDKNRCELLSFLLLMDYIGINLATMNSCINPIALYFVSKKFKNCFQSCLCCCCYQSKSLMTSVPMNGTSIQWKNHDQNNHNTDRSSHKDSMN
In words: Endothelin A receptor inhibitory effect (aequorin light emission, endothelin at EC80). It counts as cell-based. As to conditions: for IC50: CHO-K1-mt aequorin cells expressing human endothelin A receptor, endothelin at EC80, read-out: ETA receptor inhibitory effect; for ETA selectivity (ETB/ETA): ETB IC50 value/ETA IC50 value. The procedure: The inhibitory effect on an endothelin A receptor was studied by the following method.
CHO-K1-mt aequorin cells forced to express a human endothelin A receptor (Accession Number NP_001948.1) were cultured in an antibiotic-free medium for 18 hours, then treated with PBS-EDTA (5 mM EDTA), centrifuged (2 min, 405×g, room temperature), and then suspended in an assay buffer (DMEM/HAM's F12 with HEPES+0.1% BSA protease free).
(§1) 1×10^6 cells/mL of the cells were incubated at room temperature for 4 hours in the presence of coelenterazine h (Molecular Probes, Inc.) (final concentration: 5 µM). Agonistic reaction based on endothelin was confirmed to determine an endothelin concentration corresponding to EC80.
Subsequently, 50 µL (10000 cells/well) of the cell suspension treated with coelenterazine h and 50 µL of an assay buffer containing a test substance (final concentration: 0.5% in DMSO) were added to each well of a 96-well plate. 15 minutes later, endothelin was added such that its final concentration was an EC80 concentration. Receptor activity was measured as the quantity of light emission in FDSS6000 (Hamamatsu Photonics K.K.). IC50 values were calculated using XLfit (ID Business Solutions Ltd. (IDBS)).

Data set [3] deals with T2, human endothelin B receptor (Homo sapiens, UniProt P24530).
T2 construct: expressed in transfected cells; host or cells: CHO-K1-mt aequorin cells
T2 sequence (P24530 27-442): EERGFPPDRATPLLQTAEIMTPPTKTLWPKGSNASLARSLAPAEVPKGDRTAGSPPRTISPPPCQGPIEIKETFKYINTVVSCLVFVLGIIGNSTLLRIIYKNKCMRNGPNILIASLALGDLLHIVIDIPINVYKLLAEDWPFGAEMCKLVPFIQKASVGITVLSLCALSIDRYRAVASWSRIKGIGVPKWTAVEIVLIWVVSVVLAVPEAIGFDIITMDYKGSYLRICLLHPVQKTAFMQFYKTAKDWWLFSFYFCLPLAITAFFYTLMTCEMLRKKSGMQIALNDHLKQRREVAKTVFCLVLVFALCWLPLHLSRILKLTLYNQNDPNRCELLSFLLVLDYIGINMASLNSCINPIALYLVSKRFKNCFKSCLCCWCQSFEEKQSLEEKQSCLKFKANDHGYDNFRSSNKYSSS
Description: Endothelin B receptor inhibitory effect (aequorin light emission, endothelin at EC80). It counts as cell-based. As to conditions: for IC50: CHO-K1-mt aequorin cells expressing human endothelin B receptor, endothelin at EC80, read-out: ETB receptor inhibitory effect. How it is done:
The inhibitory effect on an endothelin B receptor was studied by the following method.
CHO-K1-mt aequorin cells forced to express a human endothelin B receptor (Accession Number NP_000106.1) were cultured in an antibiotic-free medium for 18 hours, then treated with PBS-EDTA (5 mM EDTA), centrifuged (2 min, 405×g, room temperature), and then suspended in an assay buffer (DMEM/HAM's F12 with HEPES+0.1% BSA protease free).
as §1
Subsequently, 50 µL (10000 cells/well) of the cell suspension treated with coelenterazine h and 50 µL of an assay buffer containing a test substance (final concentration: 0.5% in DMSO) were added to each well of a 96-well plate. 15 minutes later, endothelin was added such that its final concentration was an EC80 concentration. Receptor activity was measured as the quantity of light emission in FDSS6000 (Hamamatsu Photonics K.K.).

The nature of data set [4]: PAMPA membrane permeability test. It is filed as in vitro ADME. As to conditions: 10 μM, room temperature, 16 hours. The procedure:
The membrane permeability test was carried out using PAMPA. The specific method is as follows. • (1) Lecithin was added at 2% (w/v) into a dodecane solution and completely dissolved. • (2) 5 μL of the lecithin/dodecane solution was added to each well of a donor plate. In this respect, a pipette tip was positioned in no contact with the membrane. • (3) Immediately thereafter, 150 μL of a donor solution (5% DMSO-PBS) containing an evaluation compound (10 μM) was added to each well of the donor plate, and 300 μL of an aqueous buffer was added to each well of a PTFE acceptor plate. • (4) The donor plate filled with the donor solution containing the evaluation compound was slowly placed on the acceptor plate, and the undersurface of the membrane was confirmed to be in contact with the buffer in all the wells. • (5) After covering, the apparatus was incubated at room temperature for 16 hours. • (6) After incubation, 100 μL of the solution was recovered from each of the upper surface and the undersurface of the membrane in the acceptor plate, and acetonitrile containing an equal amount of an internal standard was added thereto. • (7) The concentration of the evaluation compound was measured to calculate a permeation rate.
A sample having a membrane permeation rate value of 1×10^−8 cm/sec or lower was given “C”; a sample having a value in the range of higher than 1×10^−8 cm/sec and 10×10^−8 cm/sec or lower was given “B”; and a sample having a value of higher than 10×10^−8 cm/sec was given “A”.

For `Cc1cc2c(cc1C#Cc1ncccc1S(=O)(=O)Nc1noc(C)c1C)C(C)(C)OC2` [Example 1, N-(4,5-Dimethylisoxazol-3-yl)-2-((3,3,6-trimethyl-1,3-dihydroisobenzofuran-5-yl)ethynyl)pyridine-3-sulfonamide], the “Metabolic stability (mouse), residual rate of the unchanged form” value in data set [1] amounted to 85%. The IC50 in data set [2] was not above 0.001 µM; in data set [3], more than 5 µM. Moreover, the “ETA selectivity (ETB/ETA)” value in data set [2] is “++ (ETB IC50 value/ETA IC50 value of higher than 5000)”. In addition, in data set [4], the Membrane permeation rate result is listed as “A (value of higher than 10×10^−8 cm/sec)”.

For the compound `Cc1cc2c(cc1C#Cc1ncccc1S(=O)(=O)Nc1noc(C)c1C)COC2` [Example 3, N-(4,5-Dimethylisoxazol-3-yl)-2-((6-methyl-1,3-dihydroisobenzofuran-5-yl)ethynyl)pyridine-3-sulfonamide], the “Metabolic stability (mouse), residual rate of the unchanged form” value in data set [1] worked out at 85%. The figures for the IC50 in data set [2] and in data set [3] were not above 0.001 µM and more than 5 µM, respectively. Besides, the “ETA selectivity (ETB/ETA)” value in data set [2] is “++ (ETB IC50 value/ETA IC50 value of higher than 5000)”. Further, the Membrane permeation rate result in data set [4] is reported as “A (value of higher than 10×10^−8 cm/sec)”.

Take `Cc1cc2c(cc1C#Cc1ncccc1S(=O)(=O)Nc1noc(C)c1C)C(=O)OC2` [Example 4, N-(4,5-Dimethylisoxazol-3-yl)-2-((6-methyl-3-oxo-1,3-dihydroisobenzofuran-5-yl)ethynyl)pyridine-3-sulfonamide]: in data set [1], the “Metabolic stability (mouse), residual rate of the unchanged form” value is 91%. In data set [2], the IC50 is not above 0.001 µM and the “ETA selectivity (ETB/ETA)” value was “++ (ETB IC50 value/ETA IC50 value of higher than 5000)”. Further, the IC50 in data set [3] was more than 5 µM. Also, in data set [4], the Membrane permeation rate result is recorded as “C (membrane permeation rate value of 1×10^−8 cm/sec or lower)”.

Regarding `Cc1onc(NS(=O)(=O)c2cccnc2C#Cc2ccc3c(c2)COC3)c1C` [Example 5, 2-((1,3-Dihydroisobenzofuran-5-yl)ethynyl)-N-(4,5-dimethylisoxazol-3-yl)pyridine-3-sulfonamide], the “Metabolic stability (mouse), residual rate of the unchanged form” value in data set [1] stood at 90%. The IC50 was 0.001 to 0.01 µM in data set [2] and more than 5 µM in data set [3]. Further, in data set [4], the Membrane permeation rate result was “B (value in the range of higher than 1×10^−8 cm/sec and 10×10^−8 cm/sec or lower)”.

For the compound `Cc1onc(NS(=O)(=O)c2cccnc2C#Cc2cc3c(cc2Cl)COC3)c1C` [Example 6, 2-((6-Chloro-1,3-dihydroisobenzofuran-5-yl)ethynyl)-N-(4,5-dimethylisoxazol-3-yl)pyridine-3-sulfonamide], the “Metabolic stability (mouse), residual rate of the unchanged form” value in data set [1] was 54%. For the same compound, the figures for the IC50 in data set [2] and in data set [3] were 0.001 to 0.01 µM and more than 5 µM, respectively. The Membrane permeation rate result in data set [4] was “A (value of higher than 10×10^−8 cm/sec)”.

On to `Cc1cc2c(cc1C#Cc1ncccc1S(=O)(=O)Nc1noc(C)c1Cl)C(C)(C)OC2` [Example 7, N-(4-Chloro-5-methylisoxazol-3-yl)-2-((3,3,6-trimethyl-1,3-dihydroisobenzofuran-5-yl)ethynyl)pyridine-3-sulfonamide], for which the “Metabolic stability (mouse), residual rate of the unchanged form” value in data set [1] is reported as 81%. Moreover, the IC50 in data set [2] is not above 0.001 µM. For the same compound, the inhibition at 5 µM in data set [3] (at 5000 nM, read-out: ETB receptor inhibitory effect, % inhibition) was 57%. The Membrane permeation rate entry in data set [4] is “A (value of higher than 10×10^−8 cm/sec)”.

Regarding `Cc1cc2c(cc1C#Cc1ncccc1S(=O)(=O)Nc1onc(C)c1C)C(C)(C)OC2` [Example 8, N-(3,4-Dimethylisoxazol-5-yl)-2-((3,3,6-trimethyl-1,3-dihydroisobenzofuran-5-yl)ethynyl)pyridine-3-sulfonamide], the “Metabolic stability (mouse), residual rate of the unchanged form” value in data set [1] was determined as 40%. Also, the values for the IC50 in data set [2] and in data set [3] were not above 0.001 µM and more than 5 µM, respectively. The “ETA selectivity (ETB/ETA)” value in data set [2] is on record as “++ (ETB IC50 value/ETA IC50 value of higher than 5000)”. Further, the Membrane permeation rate entry in data set [4] is “B (value in the range of higher than 1×10^−8 cm/sec and 10×10^−8 cm/sec or lower)”.

On to `Cc1cc2c(cc1C#Cc1ncccc1S(=O)(=O)Nc1onc(C)c1Cl)C(C)(C)OC2` [Example 9, N-(4-Chloro-3-methylisoxazol-5-yl)-2-((3,3,6-trimethyl-1,3-dihydroisobenzofuran-5-yl)ethynyl)pyridine-3-sulfonamide], for which the “Metabolic stability (mouse), residual rate of the unchanged form” value in data set [1] is 5%. Further, the values for the IC50 in data set [2] and in data set [3] were not above 0.001 µM and more than 5 µM, respectively. In addition, in data set [2], the “ETA selectivity (ETB/ETA)” value was “++ (ETB IC50 value/ETA IC50 value of higher than 5000)”. Further, in data set [4], the Membrane permeation rate result is recorded as “A (value of higher than 10×10^−8 cm/sec)”.

With `COc1nc(C)cnc1NS(=O)(=O)c1cccnc1C#Cc1cc2c(cc1C)COC2(C)C` [Example 10, N-(3-Methoxy-5-methylpyrazin-2-yl)-2-((3,3,6-trimethyl-1,3-dihydroisobenzofuran-5-yl)ethynyl)pyridine-3-sulfonamide], the “Metabolic stability (mouse), residual rate of the unchanged form” value in data set [1] was 68%. For the same compound, in data set [2], the IC50 is not above 0.001 µM and the “ETA selectivity (ETB/ETA)” value is given as “++ (ETB IC50 value/ETA IC50 value of higher than 5000)”. In data set [3], the IC50 was more than 5 µM. Besides, the Membrane permeation rate result in data set [4] is reported as “A (value of higher than 10×10^−8 cm/sec)”.
